Here are results for 6 compounds from PubChem BioAssay (NCI).

Several values for one entry are separate records, joined by “and”; a condition that tells them apart may be missing. Equal entries are not always repeated.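 A five-concentration, 48-hour dose response in 96-well plates underlies each endpoint, interpolated linearly between surrounding concentrations. GI50: concentration for 50% inhibition of growth. At the TGI there is no net growth.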 Where only a bound is given, the exact number is not on record here.

Test systems include NCI-H522 lung; MDA-MB-231 breast; K-562 leukemia; MCF7 breast; A549 NSCLC; HS 578T breast; BT-549 breast; SNB-19 CNS; SN12C renal; TK-10 renal.
Holding throughout (assay): NCI-60 cell line screen, 48 h

Turning to `Nc1nc(N)c2nc(CNc3ccc(C(=O)NC(CCCNC(=O)c4ccccc4C(=O)O)C(=O)O)cc3)cnc2n1` (centres undefined), the GI50 with NCI-H522 lung was 0.016 µM; in the assay on K-562 leukemia it was < 0.0242 µM and 0.000381 µM; in the assay with MCF7 breast it was 0.00363 µM; in the assay with A549 NSCLC, 0.00379 µM; with SN12C renal, 0.00227 µM; in the assay on TK-10 renal it was 0.031 µM. Moreover, the TGI with NCI-H522 lung, in the assay on MDA-MB-231 breast, in the assay with K-562 leukemia, in the assay on MCF7 breast, in the assay with A549 NSCLC and in the assay on HS 578T breast was more than 100 µM each time. For the same compound, the TGI in the assay with BT-549 breast, in the assay with SNB-19 CNS, with SN12C renal and in the assay with TK-10 renal was more than 100 µM each time.
Turning to `CCOC(=O)Nc1ccc(-c2nc(-c3cccc(OC)c3)c(-c3ccnc(Br)c3)[nH]2)cc1`, the GI50 was 2.73 µM in the assay on NCI-H522 lung; 3.27 µM in the assay with MDA-MB-231 breast; 2.76 µM in the assay with K-562 leukemia; 2.13 µM with MCF7 breast; 3.07 µM in the assay with A549 NSCLC; 1.68 µM in the assay with HS 578T breast. For the same compound, the GI50 in the assay on BT-549 breast was 2.19 µM; in the assay with SNB-19 CNS, 2.96 µM; with SN12C renal it was 2.77 µM; in the assay on TK-10 renal, 3.88 µM. In addition, the TGI with NCI-H522 lung was 9.16 µM; in the assay with MDA-MB-231 breast, more than 100 µM; in the assay with K-562 leukemia it was more than 100 µM; in the assay on MCF7 breast, 7.18 µM; in the assay with A549 NSCLC, more than 100 µM; in the assay with HS 578T breast, 6.15 µM. Besides, the TGI in the assay on BT-549 breast is 8.11 µM; in the assay on SNB-19 CNS, more than 100 µM; with SN12C renal, more than 100 µM; with TK-10 renal, more than 100 µM.
On to `CCCCn1sc(=O)n(Cc2ccc(CNC(=O)OCc3ccc4c(Br)cc(Br)c(O)c4n3)cc2)c1=O`, for which the GI50 in the assay on NCI-H522 lung was 0.264 µM; in the assay with MDA-MB-231 breast it was 0.475 µM; with K-562 leukemia, 0.434 µM; in the assay with MCF7 breast, 0.369 µM; in the assay on A549 NSCLC, 3.76 µM; in the assay on HS 578T breast, 0.959 µM. The GI50 with BT-549 breast was 0.406 µM; in the assay on SNB-19 CNS, 2.66 µM; with SN12C renal it was 0.53 µM; in the assay on TK-10 renal, more than 51.5 µM. In addition, the TGI in the assay on MDA-MB-231 breast is more than 51.1 µM; in the assay on K-562 leukemia, more than 100 µM; with MCF7 breast it was more than 100 µM; in the assay on A549 NSCLC, more than 100 µM; in the assay with HS 578T breast, more than 100 µM; in the assay with BT-549 breast, more than 100 µM. The TGI in the assay with SNB-19 CNS, with SN12C renal and in the assay on TK-10 renal was more than 100 µM each time.
As to `CCCSC1=NC2C(N(CC)C(=O)N2CC)N1/N=C/C=C/c1ccccc1[N+](=O)[O-]` (centres undefined), the GI50 with NCI-H522 lung is 2.12 µM; with MDA-MB-231 breast, 2.35 µM; in the assay with K-562 leukemia it was 2.31 µM; with MCF7 breast, 2.81 µM; with A549 NSCLC, 4.25 µM; with HS 578T breast, 2.39 µM. For the same compound, the GI50 in the assay with BT-549 breast was 2.6 µM; in the assay on SNB-19 CNS it was 3.74 µM; in the assay on SN12C renal, 3.84 µM; in the assay on TK-10 renal it was 10 µM. The TGI is 41 µM with NCI-H522 lung; 7.44 µM in the assay on MDA-MB-231 breast; more than 100 µM in the assay with K-562 leukemia; more than 100 µM in the assay with MCF7 breast; more than 100 µM in the assay with A549 NSCLC; more than 100 µM with HS 578T breast. For the same compound, the TGI in the assay with BT-549 breast was 8.5 µM; in the assay with SNB-19 CNS, more than 100 µM; in the assay with SN12C renal, more than 100 µM; in the assay with TK-10 renal, more than 100 µM.
As to `CCCCCCCC(=O)SCC/C=C/[C@@H]1CC(=O)NCc2nc(co2)C2=N[C@@](C)(CS2)C(=O)N[C@@H](C(C)C)C(=O)O1`, the GI50 in the assay with NCI-H522 lung is 0.00808 µM; with MDA-MB-231 breast, 0.054 µM; in the assay on K-562 leukemia, 0.0398 µM; with MCF7 breast it was 0.0311 µM; in the assay on A549 NSCLC, 0.0184 µM; with HS 578T breast, 0.0125 µM. The GI50 in the assay with BT-549 breast was 0.127 µM; in the assay with SNB-19 CNS it was 0.115 µM; with SN12C renal, 0.0508 µM; with TK-10 renal, 0.0117 µM. For the same compound, the TGI is 0.121 µM in the assay with NCI-H522 lung; 8.13 µM with MDA-MB-231 breast; more than 50 µM with K-562 leukemia; more than 50 µM in the assay with MCF7 breast; 1.91 µM in the assay on A549 NSCLC; more than 50 µM with BT-549 breast. Besides, the TGI was more than 50 µM in the assay on SNB-19 CNS, more than 50 µM in the assay with SN12C renal and 0.126 µM in the assay with TK-10 renal.
Regarding `O=C(Oc1ccccc1Cl)c1ccccc1Nc1ccnc(C(F)(F)F)c1`, the GI50 in the assay with NCI-H522 lung was 0.38 µM; in the assay with MDA-MB-231 breast it was 0.202 µM; with K-562 leukemia, 0.0768 µM; in the assay with MCF7 breast, 1.01 µM; with A549 NSCLC, 1.36 µM; in the assay on HS 578T breast, 20 µM. Also, the GI50 in the assay with BT-549 breast is 0.635 µM; in the assay on SNB-19 CNS it was 7.43 µM; in the assay on SN12C renal it was 0.289 µM; in the assay on TK-10 renal, 0.415 µM. The TGI in the assay on NCI-H522 lung is more than 70.3 µM; with MDA-MB-231 breast, 0.502 µM; in the assay on K-562 leukemia it was 3.39 µM; in the assay with MCF7 breast, more than 30.8 µM; in the assay on A549 NSCLC, 21.5 µM; in the assay on HS 578T breast it was 74.1 µM. The TGI in the assay on BT-549 breast is 20.6 µM; in the assay on SNB-19 CNS it was more than 100 µM; with SN12C renal it was 2.57 µM; in the assay with TK-10 renal, 4.61 µM.
